# Laboratory results published in US20060058250A1, “Methods of treating proliferative skin diseases using carbazole derivatives” (Cephalon, Inc., priority 2004, published 2006).
# Columns and labels:
# [1] = system: SCID-mouse-human skin model of psoriasis; details: cited from earlier work
# [2] = system: keratinocytes; details: cited from earlier work
# [3] = system: psoriasis; experiment: Case report: patient with severe psoriasis treated with oral lestaurtinib; assay type: in vivo, human; details: person, severe psoriasis in the ankle region; oral solution 60 mg bid, 80 mg bid after 29 days; observed on day 60
# Experimental: A patient with a history of renal and prostate cancer, arthritic pain and chronic bronchitis presented with severe psoriasis in the ankle region. The patient started treatment with lestaurtinib at a dosage of 60 mg bid. Lestaurtinib was administered twice daily as an oral solution at a concentration of 25 mg/mL in polysorbate 80 NF (10 mL) and propylene glycol USP (10 mL), diluted in juice. The following juices are approved for use to administer lestaurtinib: grape, pineapple, apple, V8® 100% vegetable juice, and orange juice (pulp free). After 29 days from initiation, the dosage was increased to 80 mg bid.
Compound,improvement in the skin condition [1],block of autocrine NGF loop and keratinocyte apoptosis [2],remission of psoriasis [3]
"COC(=O)[C@@]1(O)C[C@H]2O[C@]1(C)n1c3ccccc3c3c4c(c5c6ccccc6n2c5c31)C(=O)NC4 [Compound K-252a, K-252a]",noticeable improvement in the skin condition,can block an autocrine NGF loop and result in keratinocyte apoptosis,
C[C@]12O[C@H](C[C@]1(O)CO)n1c3ccccc3c3c4c(c5c6ccccc6n2c5c31)CNC4=O [lestaurtinib],,,relative remission of psoriasis
